Experimental data: patent US8557853B2, “Aryl fluoroethyl ureas acting as alpha 2 adrenergic agents” (Allergan, Inc., priority 2007, dated 2013)

What was measured:
Format in all cases: cell-based
alpha2A receptor = biological target: T1, alpha2A receptor (Homo sapiens, UniProt P08913); experiment: RSAT (Receptor Selection and Amplification Technology) assay, alpha 2A
T1 construct: expressed in transfected cells; host or cells: NIH-3T3 cells
T1 sequence (P08913 1-465): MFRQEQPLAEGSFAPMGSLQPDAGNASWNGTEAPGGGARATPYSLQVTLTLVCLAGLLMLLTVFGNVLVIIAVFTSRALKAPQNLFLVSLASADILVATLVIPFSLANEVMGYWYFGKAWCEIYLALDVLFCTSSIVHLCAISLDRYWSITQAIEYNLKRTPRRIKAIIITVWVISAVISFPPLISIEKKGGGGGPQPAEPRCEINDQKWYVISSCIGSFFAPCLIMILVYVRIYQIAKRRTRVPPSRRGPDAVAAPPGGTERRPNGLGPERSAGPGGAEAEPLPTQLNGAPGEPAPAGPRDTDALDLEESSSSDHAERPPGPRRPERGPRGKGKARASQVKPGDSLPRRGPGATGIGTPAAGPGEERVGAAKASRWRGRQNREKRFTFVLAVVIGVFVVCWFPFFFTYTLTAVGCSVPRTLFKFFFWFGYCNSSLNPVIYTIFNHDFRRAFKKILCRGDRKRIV
Text: (§1) The aryl fluoroethyl ureas of the invention are agonists of alpha2 adrenergic receptors. […] Al, 1995, Pharmacol. Toxicol. 76, pp. 308-311 (incorporated herein by reference) and is also described below. Another reference pertinent to this assay is Conklin et al. (1993) Nature 363:274-6, Receptor Selection and Amplification Technology (RSAT) assay, also incorporated herein by reference.
(§2) The RSAT assay measures a receptor-mediated loss of contact inhibition that results in selective proliferation of receptor-containing cells in a mixed population of confluent cells. The increase in cell number is assessed with an appropriate transfected marker gene such as ∃-galactosidase, the activity of which can be easily measured in a 96-well format. Receptors that activate the G protein, Gq, elicit this response. Alpha 2 receptors, which normally couple to Gi, activate the RSAT response when coexpressed with a hybrid Gq protein that has a Gi receptor recognition domain, called Gq/i5.
(§3) NIH-3T3 cells are plated at a density of 2×10^6 cells in 15 cm dishes and maintained in Dulbecco's modified Eagle's medium supplemented with 10% calf serum. One day later, cells are cotransfected by calcium phosphate precipitation with mammalian expression plasmids encoding p-SV-β-galactosidase (5-10 μg), receptor (1-2 μg) and G protein (1-2 μg). 40 μg salmon sperm DNA may also be included in the transfection mixture. Fresh media is added on the following day and 1-2 days later, cells are harvested and frozen in 50 assay aliquots. Cells are thawed and 100 μl added to 100 μl aliquots of various concentrations of drugs in triplicate in 96-well dishes. Incubations continue 72-96 hr at 37° C. After washing with phosphate-buffered saline, ∃-galactosidase enzyme activity is determined by adding 200 μl of the chromogenic substrate (consisting of 3.5 mM o-nitrophenyl-β-D-galactopyranoside and 0.5% nonidet P-40 in phosphate buffered saline), incubating overnight at 30° C. and measuring optical density at 420 nm. The absorbance is a measure of enzyme activity, which depends on cell number and reflects a receptor-mediated cell proliferation. The efficacy or intrinsic activity is calculated as a ratio of the maximal effect of the drug to the maximal effect of a standard full agonist for each receptor subtype. Brimonidine, also called UK14304, the chemical structure of which is shown below, is used as the standard agonist for the alpha2A, alpha2B and alpha2C receptors.
(§4) The results of the RSAT assay with several exemplary compounds of the invention are disclosed in Table 1 below together with the chemical structures of these compounds. “Not active” means the compounds are not active at concentrations less than 10 micromolar.

alpha2C receptor = biological target: T2, alpha2C receptor (Homo sapiens, UniProt P18825); experiment: RSAT (Receptor Selection and Amplification Technology) assay, alpha 2C
T2 construct: expressed in transfected cells; host or cells: NIH-3T3 cells
T2 sequence (P18825 1-462): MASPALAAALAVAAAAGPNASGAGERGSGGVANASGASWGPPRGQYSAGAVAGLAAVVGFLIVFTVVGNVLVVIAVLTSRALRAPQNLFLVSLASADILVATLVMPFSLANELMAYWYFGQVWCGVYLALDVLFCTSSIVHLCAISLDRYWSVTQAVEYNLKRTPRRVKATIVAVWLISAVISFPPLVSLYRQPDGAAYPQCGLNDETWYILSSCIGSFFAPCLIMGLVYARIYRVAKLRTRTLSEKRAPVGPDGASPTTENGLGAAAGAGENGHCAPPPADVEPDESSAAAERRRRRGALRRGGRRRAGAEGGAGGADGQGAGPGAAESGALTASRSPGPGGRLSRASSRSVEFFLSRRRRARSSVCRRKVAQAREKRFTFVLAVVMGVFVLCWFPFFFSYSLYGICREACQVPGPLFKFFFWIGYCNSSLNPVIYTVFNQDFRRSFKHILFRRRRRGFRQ
Text: as §1, §2, §3, §4

alpha2B receptor = biological target: T3, alpha2B receptor (Homo sapiens, UniProt P18089); experiment: RSAT (Receptor Selection and Amplification Technology) assay, alpha 2B; conditions: for EC50: RSAT, transfected NIH-3T3 cells, "not active" = not active at concentrations less than 10 micromolar, read-out: Alpha 2B EC50; for Alpha 2B IA: intrinsic activity: ratio of maximal effect of drug to maximal effect of standard full agonist brimonidine (UK14304)
T3 construct: expressed in transfected cells; host or cells: NIH-3T3 cells
T3 sequence (P18089 1-450): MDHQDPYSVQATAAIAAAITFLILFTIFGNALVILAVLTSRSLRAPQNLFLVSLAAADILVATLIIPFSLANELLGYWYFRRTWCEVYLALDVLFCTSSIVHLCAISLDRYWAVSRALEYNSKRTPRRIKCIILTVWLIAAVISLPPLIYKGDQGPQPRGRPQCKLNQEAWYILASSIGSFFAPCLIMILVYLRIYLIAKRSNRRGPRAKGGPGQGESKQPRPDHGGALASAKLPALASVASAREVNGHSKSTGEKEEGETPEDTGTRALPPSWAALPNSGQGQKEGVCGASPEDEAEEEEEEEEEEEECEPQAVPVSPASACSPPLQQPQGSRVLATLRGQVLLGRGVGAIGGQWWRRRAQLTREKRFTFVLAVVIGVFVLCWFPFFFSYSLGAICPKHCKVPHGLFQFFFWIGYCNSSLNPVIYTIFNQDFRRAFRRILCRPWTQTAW
Method: as §2, §3

[1] = RSAT, transfected NIH-3T3 cells, "not active" = not active at concentrations less than 10 micromolar
[2] = intrinsic activity: ratio of maximal effect of drug to maximal effect of standard full agonist brimonidine (UK14304)

EC50 (alpha2A receptor; [1])	Alpha 2A IA (alpha2A receptor; [2])	Alpha 2C EC50 (alpha2C receptor; [1])	EC50 (alpha2B receptor)	Alpha 2B IA (alpha2B receptor)	Alpha 2A EC50 (alpha2A receptor; [1])	EC50 (alpha2C receptor; [1])	Alpha 2C IA (alpha2C receptor; [2])	SMILES
4.2 µM	0.30	not active	2.39 µM	0.49				Cc1nn(C)c(C)c1CNC(=O)NCCF [Compound 43, 1-(2-fluoro-ethyl)-3-(1,3,5-trimethyl-1H-pyrazol-4-ylmethyl)-urea]
			2.28 µM	0.67	not active	4.16 µM	0.31	Cc1cc(CNC(=O)NCCF)nn1C [Compound 44, 1-(1,5-dimethyl-1H-pyrazol-3-ylmethyl)-3-(2-fluoro-ethyl)-urea]
